Data as given in article PMC6479601, “Salicylate and Procyanidin-Rich Stem Extracts of Gaultheria procumbens L. Inhibit Pro-Inflammatory Enzymes and Suppress Pro-Inflammatory and Pro-Oxidant Functions of Human Neutrophils Ex Vivo” (International Journal of Molecular Sciences, 2019).

Assays:
HYAL (hyaluronidase) = target: T1, HYAL (hyaluronidase); test: hyaluronidase inhibition assay (Matczak et al.); assay type: biochemical; settings: eight-point curve; read-out: HYAL / IC50 (μg GAE/mL; μM) ^b
T1 construct: gene SPAM1
From the text: hyaluronidase inhibition assay (Matczak et al.) on HYAL (hyaluronidase)

LOX (lipoxygenase) = target: T2, LOX (lipoxygenase); test: lipoxygenase inhibition assay (Matczak et al.); assay type: biochemical; settings: eight-point curve; read-out: LOX / IC50 (mg GAE/mL; mM) ^b
T2 construct: gene LOX1.1
From the text: lipoxygenase inhibition assay (Matczak et al.) on LOX (lipoxygenase)

SMILES	IC50 (HYAL (hyaluronidase)) [µM]	IC50 (LOX (lipoxygenase)) [mM]
C[C@@H]1C[C@H]2[C@@H]3CCC4=CC(=O)C=C[C@]4(C)[C@@]3(F)[C@@H](O)C[C@]2(C)[C@@]1(O)C(=O)CO [DEX]	36.1 ± 2.68	0.3 ± 0.02
COc1ccc2c(c1)c(CC(=O)O)c(C)n2C(=O)c1ccc(Cl)cc1 [IND]	35.7 ± 5.34	0.26 ± 0.01
Oc1cc(O)c2c(c1)O[C@H](c1ccc(O)c(O)c1)[C@H](O)[C@H]2c1c(O)cc(O)c2c1O[C@H](c1ccc(O)c(O)c1)[C@H](O)C2 [PB2]	37.4 ± 1.78	0.29 ± 0.03
COC(=O)c1ccccc1O[C@@H]1O[C@H](CO[C@@H]2OC[C@@H](O)[C@H](O)[C@H]2O)[C@@H](O)[C@H](O)[C@H]1O [compound 18, methyl salicylate 2-O-(6′-O-β-D-xylopyranosyl)-β-D-glucopyranoside]	64 ± 2.87	1.26 ± 0.04
O=c1c(O)c(-c2ccc(O)c(O)c2)oc2cc(O)cc(O)c12 [compound 39, QU]	102 ± 6.09	0.3 ± 0.02
